Laboratory results taken from PubChem BioAssay AID256 (DTP/NCI, 2004).
Toxic doses and inconclusive results are not listed.

Test system: CD2F1 mice, L1210 leukemia ip, survival T/C
Test: NCI In Vivo Anticancer Drug Screen. Data for tumor model L1210 Leukemia (intraperitoneal) in CD2F1 (CDF1) mice
Conditions: higher = longer survival
Outline: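 Antitumor effect is scored in animals hosting a serially transplanted tumor. Values compare compound-dosed animals against vehicle-only controls as a simple quotient.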

[1] = endpoint: mean survival time, dose: 40.0 mg/kg/injection, schedule: Q01DX001 (ip), vehicle: saline with Tween-80
[2] = endpoint: mean survival time, dose: 100.0 mg/kg/injection, schedule: Q01DX009 (ip), vehicle: saline with Tween-80
[3] = endpoint: mean survival time, dose: 100.0 mg/kg/injection, schedule: Q04DX003 (ip), vehicle: saline with Tween-80
[4] = endpoint: mean survival time, dose: 200.0 mg/kg/injection, schedule: Q01DX009 (ip), vehicle: saline with Tween-80
[5] = endpoint: mean survival time, dose: 200.0 mg/kg/injection, schedule: Q04DX003 (ip), vehicle: saline with Tween-80
[6] = endpoint: mean survival time, dose: 400.0 mg/kg/injection, schedule: Q04DX003 (ip), vehicle: saline with Tween-80

CC1OC(OCc2ccc(-c3ccccc3)cc2)CC(N)C1O (configuration not stated)
T/C (endpoint: mean survival time, dose: 0.78 mg/kg/injection, schedule: Q01DX001 (ip), vehicle: water): 94 % of control
T/C (endpoint: mean survival time, dose: 1.56 mg/kg/injection, schedule: Q01DX001 (ip), vehicle: water): 97 % of control
T/C (endpoint: mean survival time, dose: 3.13 mg/kg/injection, schedule: Q01DX001 (ip), vehicle: water): 95 % of control
T/C (endpoint: mean survival time, dose: 6.25 mg/kg/injection, schedule: Q01DX001 (ip), vehicle: water): 106 % of control
T/C (endpoint: mean survival time, dose: 12.5 mg/kg/injection, schedule: Q01DX001 (ip), vehicle: water): 97 % of control
T/C (endpoint: mean survival time, dose: 25.0 mg/kg/injection, schedule: Q01DX001 (ip), vehicle: water): 105 % of control
T/C (endpoint: median survival time, dose: 1.56 mg/kg/injection, schedule: Q04DX003 (ip), vehicle: water): 106 % of control
T/C (endpoint: median survival time, dose: 3.13 mg/kg/injection, schedule: Q04DX003 (ip), vehicle: water): 98 % of control
T/C (endpoint: median survival time, dose: 6.25 mg/kg/injection, schedule: Q04DX003 (ip), vehicle: water): 109 % of control
T/C (endpoint: median survival time, dose: 12.5 mg/kg/injection, schedule: Q04DX003 (ip), vehicle: water): 100 % of control
T/C (endpoint: median survival time, dose: 25.0 mg/kg/injection, schedule: Q04DX003 (ip), vehicle: water): 106 % of control

CC(=O)OC1OC(C)C(OC(C)=O)C(OC(C)=O)C1NC(=O)N(CCCl)N=O (configuration not stated)
T/C (endpoint: mean survival time, dose: 17.0 mg/kg/injection, schedule: Q01DX001 (ip), vehicle: saline with Tween-80): 508 % of control
T/C (endpoint: mean survival time, dose: 26.0 mg/kg/injection, schedule: Q01DX001 (ip), vehicle: saline with Tween-80): 535 % of control
T/C [1]: 389 % of control

Cc1cc(Cl)nc(N)n1
T/C (endpoint: mean survival time, dose: 100.0 mg/kg/injection, schedule: Q04DX002 (ip), vehicle: Klucel (hydroxypropylcellulose) (HPC)): 90 % of control
T/C (endpoint: mean survival time, dose: 200.0 mg/kg/injection, schedule: Q04DX002 (ip), vehicle: Klucel (hydroxypropylcellulose) (HPC)): 86 % of control

N#CC(C#N)=C1CCNc2ccccc21
T/C [2]: 96 % of control
T/C [3]: 101 % of control
T/C [4]: 94 % of control
T/C [5]: 103 % of control
T/C (endpoint: mean survival time, dose: 400.0 mg/kg/injection, schedule: Q01DX009 (ip), vehicle: saline with Tween-80): 90 % of control
T/C [6]: 97 % of control

O=S(=O)(N(c1ccccc1)S(=O)(=O)C(F)(F)F)C(F)(F)F
T/C (endpoint: mean survival time, dose: 50.0 mg/kg/injection, schedule: Q01DX009 (ip), vehicle: Klucel (hydroxypropylcellulose) (HPC)): 91 % of control
T/C (endpoint: mean survival time, dose: 100.0 mg/kg/injection, schedule: Q01DX009 (ip), vehicle: Klucel (hydroxypropylcellulose) (HPC)): 88 % of control
T/C (endpoint: mean survival time, dose: 200.0 mg/kg/injection, schedule: Q01DX009 (ip), vehicle: Klucel (hydroxypropylcellulose) (HPC)): 88 % of control

CCOC(=O)CNC(=O)CCCCSc1ncnc2nc[nH]c12
T/C (endpoint: mean survival time, dose: 20.0 mg/kg/injection, schedule: Q01DX001 (ip), vehicle: saline with Tween-80): 95 % of control
T/C (endpoint: mean survival time, dose: 20.0 mg/kg/injection, schedule: Q01DX009 (ip), vehicle: saline with Tween-80): 98 % of control
T/C (endpoint: mean survival time, dose: 20.0 mg/kg/injection, schedule: Q04DX003 (ip), vehicle: saline with Tween-80): 102 % of control
T/C [1]: 97 % of control
T/C (endpoint: mean survival time, dose: 40.0 mg/kg/injection, schedule: Q01DX009 (ip), vehicle: saline with Tween-80): 94 % of control
T/C (endpoint: mean survival time, dose: 40.0 mg/kg/injection, schedule: Q04DX003 (ip), vehicle: saline with Tween-80): 95 % of control
T/C (endpoint: mean survival time, dose: 80.0 mg/kg/injection, schedule: Q01DX009 (ip), vehicle: saline with Tween-80): 96 % of control
T/C (endpoint: mean survival time, dose: 80.0 mg/kg/injection, schedule: Q04DX003 (ip), vehicle: saline with Tween-80): 95 % of control
T/C (endpoint: mean survival time, dose: 160.0 mg/kg/injection, schedule: Q01DX001 (ip), vehicle: saline with Tween-80): 90 % of control
T/C (endpoint: mean survival time, dose: 160.0 mg/kg/injection, schedule: Q01DX009 (ip), vehicle: saline with Tween-80): 93 % of control
T/C (endpoint: mean survival time, dose: 160.0 mg/kg/injection, schedule: Q04DX003 (ip), vehicle: saline with Tween-80): 95 % of control
T/C (endpoint: mean survival time, dose: 320.0 mg/kg/injection, schedule: Q01DX001 (ip), vehicle: saline with Tween-80): 95 % of control
T/C (endpoint: mean survival time, dose: 320.0 mg/kg/injection, schedule: Q01DX009 (ip), vehicle: saline with Tween-80): 96 % of control
T/C (endpoint: mean survival time, dose: 320.0 mg/kg/injection, schedule: Q04DX003 (ip), vehicle: saline with Tween-80): 93 % of control
T/C (endpoint: mean survival time, dose: 640.0 mg/kg/injection, schedule: Q01DX001 (ip), vehicle: saline with Tween-80): 97 % of control
T/C (endpoint: mean survival time, dose: 640.0 mg/kg/injection, schedule: Q04DX003 (ip), vehicle: saline with Tween-80): 100 % of control

CN(C)c1ccc(/C=N/NC(=O)CNC(=O)Nc2cccc([N+](=O)[O-])c2)c(Cl)c1
T/C (endpoint: mean survival time, dose: 50.0 mg/kg/injection, schedule: Q01DX009 (ip), vehicle: saline with Tween-80): 88 % of control

c1ccc2[s+]cccc2c1
T/C [3]: 95 % of control

CNC(C)COc1ccccc1 (configuration not stated)
T/C [3]: 86 % of control

O=[N+]([O-])c1ccc(Sc2ccc(Cl)cc2)cc1
T/C (endpoint: mean survival time, dose: 100.0 mg/kg/injection, schedule: Q01DX001 (ip), vehicle: other): 95 % of control
T/C [2]: 98 % of control
T/C [3]: 104 % of control
T/C (endpoint: mean survival time, dose: 200.0 mg/kg/injection, schedule: Q01DX001 (ip), vehicle: other): 102 % of control
T/C [4]: 98 % of control
T/C [5]: 95 % of control
T/C (endpoint: mean survival time, dose: 400.0 mg/kg/injection, schedule: Q01DX001 (ip), vehicle: other): 107 % of control
T/C [6]: 103 % of control
